Test results published in ChEMBL document CHEMBL2417502, “Polyketides from the littoral plant associated fungus Pseudallescheria boydii” (2013).

The molecules below were run on A549 (assay: Cytotoxicity against human A549 cells after 72 hrs by SRB assay). Details: A549, 72 h.
Format: functional

SMILES | GI50 [µM]
CC[C@H](C)C1=C(OC)[C@H](O)[C@](C)(CC)C1=O | 41.3
O=c1[nH]cc(F)c(=O)[nH]1 [FLUOROURACIL] | 3.6
CO[C@@H]1C(=O)CC[C@]2(CO2)[C@@]1(O)[C@@]1(C)O[C@@H]1CC=C(C)C [OVALICIN] | 4.1
